Source: publication PMC10813298, “Evidence of Guanidines Potential against Leishmania (Viannia) braziliensis: Exploring In Vitro Effectiveness, Toxicities and of Innate Immunity Response Effects” (Biomolecules, 2023)
Where two headings read alike, the source gives them in different places.

Columns and labels:
[1] = test system: terminal ileum; assay: Spasmolytic effect on terminal ileum (KCl contraction); conditions: guinea pig terminal ilea, KCl-induced contraction
Description: Guinea pigs of either sex weighing between 250 or 380 g were utilized in this study. The animals were housed in a controlled environment in an air-conditioned room, maintaining a temperature of 22 to 24 °C and a relative humidity of 50% to 60%. A 12 h light–dark cycle was maintained.
On the day of the experiments, the animals were euthanized via cervical dislocation. The heart, aorta, pulmonary artery, and ileum were surgically removed and immersed in Krebs–Henseleit solution, with the following composition: NaCl 144.9 mM, KCl 4.73 mM, CaCl2 3.2 mM, MgSO4 1.18 mM, NaHCO3 24.9 mM, KH2PO4 1.18 mM, and glucose 10 mM, with the pH maintained at 7.2–7.4. This solution was continuously aerated with a mixture of 95% O2 and 5% CO2.
Papillary muscles were isolated from the right ventricle of the heart and meticulously cleared of Purkinje fibers to prevent spontaneous activity. To ensure adequate oxygen supply, only muscles with a diameter less than 0.87 mm were used. The right atrium was also dissected for assessment of chronotropic activity. Both the aorta and pulmonary artery were cleaned and cut into 5 mm rings, while the ileum was sectioned into pieces measuring 1 to 2 cm.
One end of the dissected tissues was securely tied with silver wire for attachment to a tissue holder, while the other end was connected to a force transducer (Transbridge™, 4-Channel Transducer Amplifier, World Precision Instruments, Sarasota, FL, USA). For contractile measurements, the terminal ileum was stimulated with 60 mM KCl, and the pulmonary artery and aorta rings were exposed to a 90 mM KCl solution. Papillary muscles were electrically stimulated using an Anapulse Stimulator Model 301-T and an Isolation Unit Model 305-1 (WPI, Hamden, CT, USA) with rectangular pulses of 3 ms duration at a frequency of 1 Hz. The amplitude of the stimulation pulse was maintained at 10% above the threshold level. To optimize contractility, a constant resting tension was applied throughout the experiment: 3.9 mN for papillary muscle, 4.9 mN for terminal ileum, 10.4 mN for the right atrium, and 19.6 mN for aorta and pulmonary artery rings.
Following a 30 min control period, different concentrations of test compounds were cumulatively added to the bath solution every 45 min until a stable effect was achieved. The responses were recorded using a chart recorder (BD 112 Dual Channel, Kipp &Zonen, PO Box 507, 2624 BC, Delft, Holland) for subsequent evaluation. Stock concentrations of the test compounds were prepared using DMSO. To account for any potential DMSO effect, control experiments were conducted with the solvent alone, and the observed effects were subtracted from the responses elicited by the test compounds.

[2] = test system: nitric oxide (NO); assay: Nitric oxide synthesis induction (Griess) in infected macrophages; assay type: cell-based, murine; conditions: supernatant of RAW 264.7 macrophages infected with L. (V.) braziliensis
Description: To evaluate the induction of nitric oxide (NO) synthesis, the following procedure was conducted: In 96-well plates, 100 μL of the supernatants obtained from the macrophage infection assays by L. (V.) braziliensis were placed. An equal volume of Griess® reagent (obtained from Sigma-Aldrich, St. Louis, MO, USA) was added to each well. In parallel, the same procedure was carried out using known concentrations of sodium nitrite (NaNO2, obtained from Vertec Química Fina, Duque de Caxias, RJ, Brazil) ranging from 125 to 2 μmol/L, which were prepared in RPMI medium. This was performedto generate a standard curve. The plates were then incubated at room temperature for 10 min. Subsequently, the absorbance of the samples was measured in a plate reader at a wavelength of 545 nm. The concentration of nitrite in the supernatants was determined by interpolating the absorbance values onto the standard curve.

[3] = test system: L. (V.) braziliensis promastigotes; assay: Antileishmanial activity on promastigotes (MTT, 72 h); assay type: cell-based, Leishmania (Viannia) braziliensis
Description: Leishmania (Viannia) braziliensis (MHOM/BR/1975/M2903) was utilized in this study. The promastigote forms of these parasites were maintained in vitro in Schneider’s insect medium pH 7.2, supplemented with 20% fetal bovine serum (FBS) and 1% antibiotic solution (100 U/mL penicillin and 100 μg/mL streptomycin) at a temperature of 26 ± 1 °C in a Biochemical Oxygen Demand (BOD) incubator (Eletrolab EL202, São Paulo, Brazil), with regular aeration and weekly subculturing.
(§1) Assessment of antileishmanial activity against promastigote and amastigote axenic forms of parasites followed the method described by Rodrigues et al. and involved the following steps: L. (V.) braziliensis parasites were cultured in 96-well plates at a concentration of 1 × 10^6 parasites per well. Each well contained 100 μL of supplemented Schneider medium. Serial concentrations of the test substances, ranging from 50 to 1.56 μmol/L, were prepared. Reference drugs, meglumine antimoniate (20 to 40,000 μmol/L) and amphotericin B (0.031 to 2 μmol/L) were also prepared. These concentrations were used to assess the effects of the test substances in comparison to reference drugs. The plates were incubated in a BOD incubator at 26 °C for 72 h. After the 72 h incubation period, 10 μL of MTT (5 mg/mL) was added to each well. The plates were then incubated for an additional 4 h. At the end of the 4 h incubation, formazan crystals formed by the reduction of the MTT salt were solubilized by adding 50 μL of a 10% (w/v) sodium dodecyl sulfate (SDS) solution in distilled water. Absorbance was measured using a microplate reader at a wavelength of 540 nm (Biosystems ELx800 model, Curitiba, PR, Brazil). This measurement quantified the metabolic activity of the parasites, which is indicative of their viability and proliferation. Schneider medium containing 0.2% DMSO was used as a negative control in the tests.
The different mean concentrations for promastigotes (IC50) and macrophages (CC50) were calculated using nonlinear regression. For comparisons between groups, ANOVA analysis of variance was performed followed by Tukey’s test in a statistical program, taking the p-value < 0.05 as the maximum level of statistical significance.

[4] = test system: L. (V.) braziliensis axenic amastigotes; assay: Antileishmanial activity on axenic amastigotes (MTT, 72 h); assay type: cell-based, Leishmania (Viannia) braziliensis
Description: In vitro amastigogenesis was performed by transformation from promastigotes at the stationary phase of growth to obtention axenic amastigotes. This process involved altering the culture conditions to Schneider’s medium with a pH of 5.5, supplementing them with 5% FBS, and incubating them at a temperature of 32 °C [17].
as §1

Row | spasmolytic effect / contraction force in the terminal ileum [1] | Structure (SMILES) | NO level [2] | IC50 [3] [µM] | IC50 ([3]; Leishmania braziliensis) [µM] | EC50 [4] [µM] | EC50 ([4]; Leishmania braziliensis) [µM]
1 | decrease in contraction force | O=C(/N=C(/NCc1ccccc1)Nc1ccc([N+](=O)[O-])cc1)c1ccccc1 [LQOF-G1, (Z)-N-benzoyl-N-benzyl-N-(4-nitrophenyl)guanidine] | increased | 4.6 ± 0.5 | 4.62 | 4.3 ± 0.2 | 4.27
2 | decrease in contraction force | O=C(/N=C(/NCc1ccccc1)Nc1ccc(Br)cc1)c1ccccc1 [LQOF-G2, (Z)-N-benzoyl-N-benzyl-N-(4-bromophenyl)guanidine] | increased |  | 5.4 ± 0.8 |  | 5 ± 0.8
3 |  | CC(C)(C)c1ccc(N/C(=N\C(=O)c2ccccc2)NCc2ccccc2)cc1 [LQOF-G6, (Z)-N-benzoyl-N-benzyl-N-(4-tert-butylphenyl)guanidine] | increased |  | 5.9 ± 0.9 |  | 4.3 ± 0.7
4 | decrease in contraction force | O=C(/N=C(/NCc1ccccc1)Nc1ccc(I)cc1)c1ccccc1 [LQOF-G7, (Z)-N-benzoyl-N-benzyl-N-(4-iodophenyl)guanidine] |  |  | 7.2 ± 0.6 |  | 6.1
5 | decrease in contraction force | O=C(/N=C(/NCc1ccc(Cl)cc1Cl)Nc1ccc(Br)cc1)c1ccccc1 [LQOF-G32, (Z)-N-benzoyl-N-(2,4-di-chlorobenzyl)-N-(4-bromophenyl)guanidine] |  |  | 17.2 ± 1 |  | 
